How the values were obtained:
Type in all cases: functional
Onchocerca lienalis [1] = assay: MMV: Percent motility assay at a compound concentration of 3.1e-6 M. Activity score legend: 3: Active, 2: Moderately active; 1: Inactive, 0: Toxic; conditions: at 3.1 µM
Onchocerca lienalis [2] = assay: MMV: Percent motility assay at a compound concentration of 1.9e-7 M. Activity score legend: 3: Active, 2: Moderately active; 1: Inactive, 0: Toxic; conditions: at 0.19 µM
Onchocerca lienalis [3] = assay: MMV: Percent motility assay at a compound concentration of 7.8e-7 M. Activity score legend: 3: Active, 2: Moderately active; 1: Inactive, 0: Toxic; conditions: at 0.78 µM
Onchocerca lienalis [4] = assay: MMV: Percent motility assay at a compound concentration of 1.25e-5 M. Activity score legend: 3: Active, 2: Moderately active; 1: Inactive, 0: Toxic; conditions: at 12.5 µM

SMILES | Motility (Onchocerca lienalis [1]) | Motility (Onchocerca lienalis [2]) | Motility (Onchocerca lienalis [3]) | Motility (Onchocerca lienalis [4])
CCOc1cc(CNC(C)C(O)c2ccccc2)cc(Cl)c1OCC (configuration not stated) | 100% | 100% | 100% | 100%
Cc1cc(NC(=O)c2cccc(C(F)(F)F)c2)n(-c2nc(-c3ccc4c(c3)OCO4)cs2)n1 | 100% | 100% | 100% | 100%
COc1cccc(C2(C)Nc3ccccc3-c3nc4ccccc4n32)c1 (configuration not stated) | 100% | 100% | 100% | 100%
CC(C)CNC(=O)c1c(N)n(CCc2ccccc2F)c2nc3ccccc3nc12 | 100% | 100% | 100% | 100%
Cc1cccc(-n2ncc3c(O)nc(-n4nc(C)cc4NC(=O)c4cc5ccccc5o4)nc32)c1 | 100% | 100% | 100% | 0%
Oc1ccccc1CN1CCC2(CCCN(Cc3ccccc3F)C2)C1 (configuration not stated) | 100% | 100% | 100% | 100%
COc1cccc(Nc2nc(NCCO)c3ccccc3n2)c1.Cl | 100% | 100% | 100% | 100%
Cc1ccc(-c2cc(C(=O)Nc3ccc(S(=O)(=O)N4CCCCC4)cc3)[nH]n2)c(O)c1 | 100% | 100% | 100% | 100%
COCCNCC(O)Cn1c2ccc(Cl)cc2c2cc(Cl)ccc21 (configuration not stated) | 100% | 100% | 100% | 66.66%
COc1ccc(N2CCN(C(CNC(=O)C3CCCCC3)c3ccc4c(c3)OCO4)CC2)cc1 (configuration not stated) | 100% | 100% | 100% | 100%
O=C(NC1CCN(Cc2ccccc2)CC1)c1cc(-c2ccncc2)nc2ccc(Cl)cc12 | 100% | 100% | 100% | 100%
COc1cc2cc(C(=O)Nc3ccccc3)c(N)nc2cc1OC | 100% | 100% | 100% | 100%
Cn1c(=O)c2cc(C(=O)NCCCN3CCCCCC3)sc2c2ccccc21 | 100% | 100% | 100% | 100%
Cc1[nH]c(-c2ccc(F)cc2)cc1C(=O)NC1CCN(Cc2ccccc2)CC1 | 100% | 100% | 100% | 100%
COc1ccc(CCN2CCC(CN(C)Cc3cnn(-c4ccccc4)c3)CC2)cc1 | 100% | 100% | 100% | 100%
O=C(NC(c1ccccc1)c1ccc2cccnc2c1O)c1ccccc1 (configuration not stated) | 33.33% | 100% | 100% | 26.66%
O=C(O)C(=O)O.Oc1ccccc1CN1CCN(C(c2ccccc2)c2ccccc2)CC1 | 100% | 100% | 100% | 100%
O=C(NC1CCCC1)c1ccc(N2CCC(NCc3cccc(C(F)(F)F)c3)CC2)cc1 | 100% | 100% | 100% | 100%
CCOc1cc(Br)c(C(C)NC(=O)c2cccc(OC)c2)cc1OCC (configuration not stated) | 100% | 100% | 100% | 100%
CCN(CC)CCn1c(=N)n(CC(O)c2ccc(Cl)c(Cl)c2)c2ccccc21.Cl (configuration not stated) | 100% | 100% | 100% | 100%
CCOc1cc(Cl)c(C(C)NC(=O)c2cccc(OC)c2)cc1OCC (configuration not stated) | 100% | 100% | 100% | 100%
Cc1ccc(Cl)cc1N1CCN(CCCNC(=O)C2CCN(c3nc4ccccc4[nH]3)CC2)CC1 | 100% | 100% | 100% | 100%
Cc1ccc(CSCc2ccc(C(=O)NC3CC3)o2)cc1 | 100% | 100% | 100% | 100%
CN1CCN(c2c3c(c(C#N)c4nc5ccccc5n24)CCC3)CC1 | 100% | 100% | 100% | 100%
CCOc1ccc(C2N(C)c3ccccc3N2C)cc1 | 100% | 100% | 100% | 100%
CC(=O)NCCc1nc2ccccc2n1Cc1ccc(C(C)C)cc1 | 100% | 100% | 100% | 100%
COc1nc(Nc2ccc(C(C)C)cc2)nc(OC)n1 | 100% | 100% | 100% | 100%

SMILES | Motility (Onchocerca lienalis [1]) | Motility (Onchocerca lienalis [2]) | Motility (Onchocerca lienalis [3]) | Motility (Onchocerca lienalis [4])
CCN(CC)CCNc1ncnc2c1[nH]c1ccc(Br)cc12 | 100% | 100% | 100% | 100%
CCOc1cccc(C(=O)Nc2ccc(-c3nc4ccccc4[nH]3)cc2)c1 | 100% | 100% | 100% | 100%
Cl.Clc1cc(Br)ccc1-c1ccc(CNCC2CCNCC2)o1 | 100% | 100% | 100% | 100%
CCCC(c1nnnn1C1CCCCC1)N1CCN(C(=O)c2ccco2)CC1.Cl (configuration not stated) | 100% | 100% | 100% | 100%
CC(C)(C)C(=O)Nc1ccc(C(=O)Nc2cccc(-c3nc4ccccc4[nH]3)c2)cc1 | 100% | 100% | 100% | 100%
COc1ccc(-c2nonc2NC(=O)c2cccc(C)c2)cc1OC | 100% | 100% | 100% | 100%
COc1cccc(-c2nn(C)c3sc(C(=O)NCCN4CCN(c5ccccc5F)CC4)cc23)c1 | 100% | 100% | 100% | 100%
O=C(Nc1ccc(N2CCN(Cc3ccccc3)CC2)cc1)c1cccs1.O=C(O)C(F)(F)F | 100% | 100% | 100% | 100%
Cc1ccc(CN2CCC(C(=O)Nc3ccc(-c4cc5ccccc5[nH]4)cc3)CC2)o1 | 100% | 100% | 100% | 100%
O=C(Nc1ccc(N2CCCCC2)c(Cl)c1)c1ccc(Br)o1 | 100% | 100% | 100% | 100%
Cc1cc(C)c2nc(N3CCC(C(=O)NCCCN4CCC(N5CCCCC5)CC4)CC3)sc2c1 | 100% | 100% | 100% | 100%
CC(C)(C)c1ccc(C(=O)Nc2nc3ccccc3s2)cc1 | 100% | 100% | 100% | 100%
CC1CC(C)CN(C(=O)c2ccc(Cl)cc2Cl)C1 (configuration not stated) | 100% | 100% | 100% | 100%
COc1ccccc1CNC(=O)C1c2ccccc2C(=O)N(CC(C)C)C1c1cccs1 (configuration not stated) | 100% | 100% | 100% | 100%
OC(CNC1CCCC1)Cn1c2ccccc2c2ccccc21 (configuration not stated) | 100% | 100% | 100% | 100%
COc1ccc(C2N(C)c3ccccc3N2C)cc1 | 100% | 100% | 100% | 100%
CC(C)OCc1cc(CN2CCN(c3cccc(Cl)c3)CC2)c(O)c2ncccc12 | 100% | 100% | 100% | 0%
O=C(Nc1ccc(F)c(Cl)c1)Nc1ccc(Cl)c(Cl)c1 | 100% | 100% | 100% | 0%
Clc1ccc2[nH]c3c(NCCCN4CCOCC4)ncnc3c2c1 | 100% | 100% | 100% | 100%
CCCc1c(C)nc2ccccc2c1O | 100% | 100% | 100% | 100%
CCOc1c(Cl)cc(CNC(C)C(O)c2ccccc2)cc1OC (configuration not stated) | 100% | 100% | 100% | 100%
CCCN(CCC)CCCNC(=O)c1cc2c(-c3ccc(OC)c(OC)c3)nn(C)c2s1 | 100% | 100% | 100% | 100%
CN1c2ccccc2N(C)C1c1ccc2c(c1)OCO2 | 100% | 100% | 100% | 100%
O=C(NCC1Cc2cccc(-c3ccncc3)c2O1)c1csc2c1CCCC2 (configuration not stated) | 100% | 100% | 100% | 100%
CCc1ccc(Nc2cc(C)nc3nc(C)nn23)cc1 | 100% | 100% | 100% | 100%
C=CCc1c(C)nc2ccccc2c1O | 100% | 100% | 100% | 100%

From ChEMBL document CHEMBL3137381, “MMV Box Onchocerca lienalis screening set”
